Data on 7 cell lines can be found in the supplement of paper PMC10307832.

Common to all, as to experiment: relative viability (nuclei count vs DMSO), 5 days (fraction); higher = more cells survive
Compound in assay [1]: C1=CC2=NC=CN=C2C=C1/C=C/3\C(=O)NC(=O)S3 + CS(=O)(=O)N1CCN(Cc2cc3nc(-c4cccc5[nH]ncc45)nc(N4CCOCC4)c3s2)CC1 [Pictilisib] (partner 1 µM)
The method in brief:
(§1)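 Nuclei were stained with Hoechst during a one-step fixation (final 0.05% Triton X-100, 1% formaldehyde, 1 ug/ml Hoechst) carried out 5 days after dosing, then counted on 4× images. The cells, lung cancer lines in 1536-well plates, had been dosed by pin tool the day after seeding with one drug alone or a fixed anchor-drug dose plus five library-drug doses (not always all listed) in √10 steps. Relative viability is the nuclei count in treated wells divided by that in vehicle wells, and each value is the median of duplicate plates.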

Compound in assay [2]: C1=CC2=NC=CN=C2C=C1/C=C/3\C(=O)NC(=O)S3 + CC(C)C[C@H](NC(=O)[C@H](Cc1ccccc1)NC(=O)c1cnccn1)B(O)O [Bortezomib] (partner 0.002 µM)
The method in brief:
as §1

Compound in assay [3]: C1=CC2=NC=CN=C2C=C1/C=C/3\C(=O)NC(=O)S3 + O=C(c1cc(Cc2n[nH]c(=O)c3ccccc23)ccc1F)N1CCN(C(=O)C2CC2)CC1 [Olaparib] (partner 8 µM)
The method in brief: as §1

Compound in the assay “BGJ398 + Dasatinib”: CCN1CCN(c2ccc(Nc3cc(N(C)C(=O)Nc4c(Cl)c(OC)cc(OC)c4Cl)ncn3)cc2)CC1 [BGJ398] + Cc1nc(Nc2ncc(C(=O)Nc3c(C)cccc3Cl)s2)cc(N2CCN(CCO)CC2)n1 [Dasatinib] (partner 0.075 µM)
The method in brief:
as §1

On to 201T, for which the relative viability in assay [1] (first compound 0.02 µM) stood at 0.606; in assay [1] (first compound 0.06325 µM) it was 0.799; in assay [1] (first compound 0.2 µM), 0.712; in assay [1] (first compound 0.6325 µM), 0.666; in assay [1] (first compound 2 µM), 0.573; in assay [2] (first compound 0.02 µM) it was 0.979. The relative viability in assay [2] (first compound 0.06325 µM) stood at 1.1; in assay [2] (first compound 0.2 µM) it was 1.1; in assay [2] (first compound 0.6325 µM), 1.08; in assay [2] (first compound 2 µM) it was 1.03; in assay [3] (first compound 0.02 µM) it was 0.878; in assay [3] (first compound 0.06325 µM), 0.81. Moreover, the relative viability in assay [3] (first compound 0.2 µM) amounted to 0.844; in assay [3] (first compound 0.6325 µM), 0.828; in assay [3] (first compound 2 µM) it was 0.866; in the assay with BGJ398 + Dasatinib (first compound 0.01 µM) it was 0.582; with BGJ398 + Dasatinib (first compound 0.03162 µM), 0.557; in the assay with BGJ398 + Dasatinib (first compound 0.1 µM), 0.5. For the same cell line, the relative viability stood at 0.566 with BGJ398 + Dasatinib (first compound 0.3162 µM) and 0.514 with BGJ398 + Dasatinib (first compound 1 µM).
As for A549, the relative viability in assay [1] (first compound 0.02 µM) is 0.518; in assay [1] (first compound 0.06325 µM) it was 0.646; in assay [1] (first compound 0.2 µM) it was 0.453; in assay [1] (first compound 0.6325 µM), 0.555; in assay [1] (first compound 2 µM), 0.464; in assay [3] (first compound 0.02 µM), 0.284. Also, the relative viability was 0.133 in assay [3] (first compound 0.06325 µM), 0.366 in assay [3] (first compound 0.2 µM), 0.335 in assay [3] (first compound 0.6325 µM) and 0.12 in assay [3] (first compound 2 µM).
On to A-427, for which the relative viability in assay [1] (first compound 0.02 µM) was determined as 0.711; in assay [1] (first compound 0.06325 µM), 0.685; in assay [1] (first compound 0.2 µM), 0.788; in assay [1] (first compound 0.6325 µM), 0.675; in assay [1] (first compound 2 µM), 0.679; in assay [2] (first compound 0.02 µM) it was 0.991. For the same cell line, the relative viability worked out at 1.1 in assay [2] (first compound 0.06325 µM); 1.04 in assay [2] (first compound 0.2 µM); 0.915 in assay [2] (first compound 0.6325 µM); 0.965 in assay [2] (first compound 2 µM); 0.71 in assay [3] (first compound 0.02 µM); 0.83 in assay [3] (first compound 0.06325 µM). The relative viability is 0.716 in assay [3] (first compound 0.2 µM); 0.716 in assay [3] (first compound 0.6325 µM); 0.634 in assay [3] (first compound 2 µM); 0.656 with BGJ398 + Dasatinib (first compound 0.01 µM); 0.694 with BGJ398 + Dasatinib (first compound 0.03162 µM); 0.674 in the assay with BGJ398 + Dasatinib (first compound 0.1 µM). For the same cell line, the relative viability in the assay with BGJ398 + Dasatinib (first compound 0.3162 µM) stood at 0.348; with BGJ398 + Dasatinib (first compound 1 µM), 0.598.
As for ABC-1, the relative viability in assay [1] (first compound 0.02 µM) was 0.676; in assay [1] (first compound 0.06325 µM), 0.67; in assay [1] (first compound 0.2 µM) it was 0.721; in assay [1] (first compound 0.6325 µM), 0.673; in assay [1] (first compound 2 µM), 0.576; in assay [2] (first compound 0.02 µM), 0.3. In addition, the relative viability in assay [2] (first compound 0.06325 µM) was determined as 0.263; in assay [2] (first compound 0.2 µM) it was 0.328; in assay [2] (first compound 0.6325 µM) it was 0.261; in assay [2] (first compound 2 µM) it was 0.27; in assay [3] (first compound 0.02 µM), 0.712; in assay [3] (first compound 0.06325 µM), 0.88. Further, the relative viability in assay [3] (first compound 0.2 µM) was found to be 0.859; in assay [3] (first compound 0.6325 µM) it was 0.782; in assay [3] (first compound 2 µM), 0.735; with BGJ398 + Dasatinib (first compound 0.01 µM), 0.504; with BGJ398 + Dasatinib (first compound 0.03162 µM), 0.539; in the assay with BGJ398 + Dasatinib (first compound 0.1 µM) it was 0.608. The relative viability with BGJ398 + Dasatinib (first compound 0.3162 µM) worked out at 0.545; in the assay with BGJ398 + Dasatinib (first compound 1 µM) it was 0.515.
With BEN, the relative viability in assay [1] (first compound 0.02 µM) stood at 0.54; in assay [1] (first compound 0.06325 µM), 0.622; in assay [1] (first compound 0.2 µM), 0.613; in assay [1] (first compound 0.6325 µM), 0.496; in assay [1] (first compound 2 µM), 0.556; in assay [2] (first compound 0.02 µM), 0.803. Besides, the relative viability in assay [2] (first compound 0.06325 µM) was found to be 0.982; in assay [2] (first compound 0.2 µM), 0.904; in assay [2] (first compound 0.6325 µM), 0.566; in assay [2] (first compound 2 µM), 0.705; in assay [3] (first compound 0.02 µM), 1.09; in assay [3] (first compound 0.06325 µM), 1.05. In addition, the relative viability in assay [3] (first compound 0.2 µM) amounted to 1.02; in assay [3] (first compound 0.6325 µM), 1.12; in assay [3] (first compound 2 µM), 1.03; with BGJ398 + Dasatinib (first compound 0.01 µM), 0.349; in the assay with BGJ398 + Dasatinib (first compound 0.03162 µM) it was 0.298; in the assay with BGJ398 + Dasatinib (first compound 0.1 µM), 0.331. In addition, the figures for the relative viability with BGJ398 + Dasatinib (first compound 0.3162 µM) and in the assay with BGJ398 + Dasatinib (first compound 1 µM) were 0.252 and 0.26, respectively.
For the cell line CAL-12T, the relative viability in assay [1] (first compound 0.02 µM) was 0.341; in assay [1] (first compound 0.06325 µM) it was 0.444; in assay [1] (first compound 0.2 µM), 0.716; in assay [1] (first compound 0.6325 µM), 0.39; in assay [1] (first compound 2 µM), 0.64; in assay [2] (first compound 0.02 µM) it was 1.05. Further, the relative viability was determined as 1.06 in assay [2] (first compound 0.06325 µM); 0.921 in assay [2] (first compound 0.2 µM); 0.97 in assay [2] (first compound 0.6325 µM); 0.966 in assay [2] (first compound 2 µM); 0.64 in assay [3] (first compound 0.02 µM); 0.784 in assay [3] (first compound 0.06325 µM). Also, the relative viability was 0.692 in assay [3] (first compound 0.2 µM); 0.779 in assay [3] (first compound 0.6325 µM); 0.672 in assay [3] (first compound 2 µM); 0.534 in the assay with BGJ398 + Dasatinib (first compound 0.01 µM); 0.554 in the assay with BGJ398 + Dasatinib (first compound 0.03162 µM); 0.443 with BGJ398 + Dasatinib (first compound 0.1 µM). Further, the relative viability with BGJ398 + Dasatinib (first compound 0.3162 µM) is 0.386; with BGJ398 + Dasatinib (first compound 1 µM), 0.325.
Consider COR-L23, for which the relative viability in assay [1] (first compound 0.02 µM) amounted to 0.784; in assay [1] (first compound 0.06325 µM), 1.01; in assay [1] (first compound 0.2 µM), 0.78; in assay [1] (first compound 0.6325 µM), 0.717; in assay [1] (first compound 2 µM), 0.453; in assay [2] (first compound 0.02 µM) it was 0.906. The relative viability in assay [2] (first compound 0.06325 µM) came to 0.947; in assay [2] (first compound 0.2 µM), 0.972; in assay [2] (first compound 0.6325 µM), 0.95; in assay [2] (first compound 2 µM), 0.941; in assay [3] (first compound 0.02 µM), 0.273; in assay [3] (first compound 0.06325 µM), 0.383. The relative viability in assay [3] (first compound 0.2 µM) stood at 0.323; in assay [3] (first compound 0.6325 µM), 0.401; in assay [3] (first compound 2 µM), 0.36; with BGJ398 + Dasatinib (first compound 0.01 µM), 0.474; in the assay with BGJ398 + Dasatinib (first compound 0.03162 µM), 0.527; with BGJ398 + Dasatinib (first compound 0.1 µM), 0.571. The relative viability was found to be 0.464 in the assay with BGJ398 + Dasatinib (first compound 0.3162 µM) and 0.456 in the assay with BGJ398 + Dasatinib (first compound 1 µM).
